In patent US20080051387A1, “TETRAHYDROPYRIDO[3,4-D]PYRIMIDINES AND RELATED ANALOGUES” (priority 2006, published 2008):

These compounds were tested against T1, chimeric human H3 receptor (Homo sapiens, UniProt Q9Y5N1) (assay: Chimeric human H3 receptor screening GTP binding assay (inhibition of histamine-stimulated GTP-gamma35S binding, Example 8)). Conditions: 1 h; assay described in Example 8; symbol "!" in column headed Ki; read-out: Ki ("!": percent inhibition of agonist-induced GTP-gammaS binding to H3).
T1 construct: rat Galpha-i2 (Gnai2, rat); made in house; host or cells: Sf9 insect cells (baculovirus); P2 membranes
T1 sequence (Q9Y5N1 with tags, fused parts or gaps): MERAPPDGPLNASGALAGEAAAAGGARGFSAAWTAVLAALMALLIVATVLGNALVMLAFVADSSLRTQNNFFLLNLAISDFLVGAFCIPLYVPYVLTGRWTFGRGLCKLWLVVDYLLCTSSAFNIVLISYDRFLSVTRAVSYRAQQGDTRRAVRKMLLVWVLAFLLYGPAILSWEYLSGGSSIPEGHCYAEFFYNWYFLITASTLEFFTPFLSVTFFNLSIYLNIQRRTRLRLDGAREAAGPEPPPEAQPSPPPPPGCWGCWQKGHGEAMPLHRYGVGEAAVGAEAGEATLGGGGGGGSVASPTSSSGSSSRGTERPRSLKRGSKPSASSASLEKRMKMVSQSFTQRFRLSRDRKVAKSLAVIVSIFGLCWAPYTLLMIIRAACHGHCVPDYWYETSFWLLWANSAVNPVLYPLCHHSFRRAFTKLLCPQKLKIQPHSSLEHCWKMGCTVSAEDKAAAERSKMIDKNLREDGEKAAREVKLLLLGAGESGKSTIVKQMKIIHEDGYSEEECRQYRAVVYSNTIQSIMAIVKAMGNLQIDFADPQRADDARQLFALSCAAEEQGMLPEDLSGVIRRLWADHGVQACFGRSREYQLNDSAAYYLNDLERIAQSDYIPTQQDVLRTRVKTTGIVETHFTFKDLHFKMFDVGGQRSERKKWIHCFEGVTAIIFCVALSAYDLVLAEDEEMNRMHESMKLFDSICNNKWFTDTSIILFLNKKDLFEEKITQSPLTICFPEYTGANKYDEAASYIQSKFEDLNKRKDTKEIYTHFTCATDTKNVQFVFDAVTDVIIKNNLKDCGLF
Type: biochemical
Outline: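 Compound tested at 4 μM against 1 μM histamine stimulation; 125 pM GTP-gamma35S binding measured by filtration and scintillation after 60 min at room temperature. Membranes from Sf9 cells expressing chimeric human H3 plus G-protein subunits, in Tris pH 7.4/NaCl/MgCl2/GDP buffer; values are % inhibition after nonspecific subtraction.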

Inhibition at 4 µM, ≥ 90%:
CSc1ccccc1C(=O)N1CCc2cnc(N3CCN(C4CCC4)CC3)nc2CC1 [Compound 408, 2-(4-cyclobutylpiperazin-1-yl)-7-[2-(methylthio)benzoyl]-6,7,8,9-tetrahydro-5H-pyrimido[4,5-d]azepine]
O=C(c1cc2ccccc2s1)N1CCc2cnc(N3CCN(C4CCC4)CC3)nc2CC1 [Compound 455, 7-(1-benzothien-2-ylcarbonyl)-2-(4-cyclobutylpiperazin-1-yl)-6,7,8,9-tetrahydro-5H-pyrimido[4,5-d]azepine]
O=C(c1cccnc1Cl)N1CCc2cnc(N3CCN(C4CCC4)CC3)nc2CC1 [Compound 477, 7-[(2-chloropyridin-3-yl)carbonyl]-2-(4-cyclobutylpiperazin-1-yl)-6,7,8,9-tetrahydro-5H-pyrimido[4,5-d]azepine]
Cc1onc(-c2c(Cl)cccc2Cl)c1C(=O)N1CCc2cnc(N3CCN(C4CCC4)CC3)nc2CC1 [Compound 523, 2-(4-cyclobutylpiperazin-1-yl)-7-{[3-(2,6-dichlorophenyl)-5-methylisoxazol-4-yl]carbonyl}-6,7,8,9-tetrahydro-5H-pyrimido[4,5-d]azepine]
O=C(c1cccnc1Sc1ccccc1)N1CCc2cnc(N3CCN(C4CCC4)CC3)nc2CC1 [Compound 496, 2-(4-cyclobutylpiperazin-1-yl)-7-{[2-(phenylthio)pyridin-3-yl]carbonyl}-6,7,8,9-tetrahydro-5H-pyrimido[4,5-d]azepine]
O=C(c1ccc(OCC(F)(F)F)nc1)N1CCc2cnc(N3CCN(C4CCC4)CC3)nc2CC1 [Compound 474, 2-(4-cyclobutylpiperazin-1-yl)-7-{[6-(2,2,2-trifluoroethoxy)pyridin-3-yl]carbonyl}-6,7,8,9-tetrahydro-5H-pyrimido[4,5-d]azepine]
COc1cc(OC)cc(C(=O)N2CCc3cnc(N4CCN(C5CCC5)CC4)nc3CC2)c1 [Compound 381, 2-(4-cyclobutylpiperazin-1-yl)-7-(3,5-dimethoxybenzoyl)-6,7,8,9-tetrahydro-5H-pyrimido[4,5-d]azepine]
Cc1oc(-c2ccccc2)cc1C(=O)N1CCc2cnc(N3CCN(C4CCC4)CC3)nc2CC1 [Compound 469, 2-(4-cyclobutylpiperazin-1-yl)-7-(2-methyl-5-phenyl-3-furoyl)-6,7,8,9-tetrahydro-5H-pyrimido[4,5-d]azepine]

Same assay, conditions: 1 h; assay of Example 8; symbol "!" in column headed Ki; read-out: percent inhibition of agonist-induced GTP-gammaS binding to H3

Inhibition at 4 µM, ≥ 90%:
CCC(CC)CN1CCc2cnc(N3CCN(C4CCC4)CC3)nc2CC1 [Compound 253, 2-(4-cyclobutylpiperazin-1-yl)-7-(2-ethylbutyl)-6,7,8,9-tetrahydro-5H-pyrimido[4,5-d]azepine]
O=C(Cc1ccccc1)N1CCc2cnc(N3CCN(C4CCC4)CC3)nc2CC1 [Compound 213, 2-(4-cyclobutylpiperazin-1-yl)-7-(phenylacetyl)-6,7,8,9-tetrahydro-5H-pyrimido[4,5-d]azepine]
COc1cccc(OCC(=O)N2CCc3cnc(N4CCN(C5CCC5)CC4)nc3CC2)c1 [Compound 324, 2-(4-cyclobutylpiperazin-1-yl)-7-[(3-methoxyphenoxy)acetyl]-6,7,8,9-tetrahydro-5H-pyrimido[4,5-d]azepine]
CCSc1ccc(C(=O)N2CCc3cnc(N4CCN(C5CCC5)CC4)nc3CC2)cc1 [Compound 370, 2-(4-cyclobutylpiperazin-1-yl)-7-[4-(ethylthio)benzoyl]-6,7,8,9-tetrahydro-5H-pyrimido[4,5-d]azepine]
Cc1cccc(CN2CCc3cnc(N4CCN(C5CCC5)CC4)nc3CC2)n1 [Compound 238, 2-(4-cyclobutylpiperazin-1-yl)-7-[(6-methylpyridin-2-yl)methyl]-6,7,8,9-tetrahydro-5H-pyrimido[4,5-d]azepine]
O=C(Cc1ccccc1C(F)(F)F)N1CCc2cnc(N3CCN(C4CCC4)CC3)nc2CC1 [Compound 295, 2-(4-cyclobutylpiperazin-1-yl)-7-{[2-(trifluoromethyl)phenyl]acetyl}-6,7,8,9-tetrahydro-5H-pyrimido[4,5-d]azepine]
O=C(COc1cccc(Cl)c1)N1CCc2cnc(N3CCN(C4CCC4)CC3)nc2CC1 [Compound 330, 7-[(3-chlorophenoxy)acetyl]-2-(4-cyclobutylpiperazin-1-yl)-6,7,8,9-tetrahydro-5H-pyrimido[4,5-d]azepine]
COc1cc(Cl)ccc1OCC(=O)N1CCc2cnc(N3CCN(C4CCC4)CC3)nc2CC1 [Compound 318, 7-[(4-chloro-2-methoxyphenoxy)acetyl]-2-(4-cyclobutylpiperazin-1-yl)-6,7,8,9-tetrahydro-5H-pyrimido[4,5-d]azepine]
Cc1cccc(OCC(=O)N2CCc3cnc(N4CCN(C5CCC5)CC4)nc3CC2)c1 [Compound 322, 2-(4-cyclobutylpiperazin-1-yl)-7-[(3-methylphenoxy)acetyl]-6,7,8,9-tetrahydro-5H-pyrimido[4,5-d]azepine]
CC(C)CCC(=O)N1CCc2cnc(N3CCN(C4CCC4)CC3)nc2CC1 [Compound 209, 2-(4-cyclobutylpiperazin-1-yl)-7-(4-methylpentanoyl)-6,7,8,9-tetrahydro-5H-pyrimido[4,5-d]azepine]
O=C(c1ccco1)N1CCc2cnc(N3CCN(C4CCC4)CC3)nc2CC1 [Compound 196, 2-(4-cyclobutylpiperazin-1-yl)-7-(2-furoyl)-6,7,8,9-tetrahydro-5H-pyrimido[4,5-d]azepine]
CCCC(C)CN1CCc2cnc(N3CCN(C4CCC4)CC3)nc2CC1 (stereo not drawn) [Compound 255, 2-(4-cyclobutylpiperazin-1-yl)-7-(2-methylpentyl)-6,7,8,9-tetrahydro-5H-pyrimido[4,5-d]azepine]
O=C(Cc1ccccc1Cl)N1CCc2cnc(N3CCN(C4CCC4)CC3)nc2CC1 [Compound 294, 7-[(2-chlorophenyl)acetyl]-2-(4-cyclobutylpiperazin-1-yl)-6,7,8,9-tetrahydro-5H-pyrimido[4,5-d]azepine]

Same assay, conditions: symbol ! in Ki; test compound 4 μM, 1 μM histamine; read-out: percent inhibition of agonist-induced GTP-gammaS binding to H3

Inhibition at 4 µM, ≥ 90%:
Clc1ccc(CN2CCc3c(ncnc3N3CCN(C4CCC4)CC3)C2)c(Cl)c1 [Compound 99, 4-(4-cyclobutylpiperazin-1-yl)-7-(2,4-dichlorobenzyl)-5,6,7,8-tetrahydropyrido[3,4-d]pyrimidine]
CCC(C)CN1CCc2c(ncnc2N2CCN(C3CCC3)CC2)C1 (stereo not drawn) [Compound 87, 4-(4-cyclobutylpiperazin-1-yl)-7-(2-methylbutyl)-5,6,7,8-tetrahydropyrido[3,4-d]pyrimidine]
Cc1cc(CN2CCc3nc(N4CCN(C5CCC5)CC4)ncc3C2)n(C)n1 [Compound 622, 2-(4-cyclobutylpiperazin-1-yl)-6-[(1,3-dimethyl-1H-pyrazol-5-yl)methyl]-5,6,7,8-tetrahydropyrido[4,3-d]pyrimidine]
Cc1cc(CN2CCc3ncnc(N4CCN(C5CCC5)CC4)c3CC2)n(C)n1 [Compound 156, 4-(4-cyclobutylpiperazin-1-yl)-7-[(1,3-dimethyl-1H-pyrazol-5-yl)methyl]-6,7,8,9-tetrahydro-5H-pyrimido[4,5-d]azepine]
Clc1ccccc1CN1CCc2ncnc(N3CCN(C4CCC4)CC3)c2CC1 [Compound 180, 7-(2-chlorobenzyl)-4-(4-cyclobutylpiperazin-1-yl)-6,7,8,9-tetrahydro-5H-pyrimido[4,5-d]azepine]
Cc1c(F)cccc1C(C)N1CCc2c(ncnc2N2CCN(C3CCC3)CC2)C1 (stereo not drawn) [Compound 134, 4-(4-cyclobutylpiperazin-1-yl)-7-[1-(3-fluoro-2-methylphenyl)ethyl]-5,6,7,8-tetrahydropyrido[3,4-d]pyrimidine]
Cc1cccc(C(C)N2CCc3c(ncnc3N3CCN(C4CCC4)CC3)C2)n1 (stereo not drawn) [Compound 110, 4-(4-cyclobutylpiperazin-1-yl)-7-[1-(6-methylpyridin-2-yl)ethyl]-5,6,7,8-tetrahydropyrido[3,4-d]pyrimidine]
CC(c1ccc(N2CCCC2)nc1)N1CCc2c(ncnc2N2CCN(C3CCC3)CC2)C1 (stereo not drawn) [Compound 133, 4-(4-cyclobutylpiperazin-1-yl)-7-[1-(6-pyrrolidin-1-ylpyridin-3-yl)ethyl]-5,6,7,8-tetrahydropyrido[3,4-d]pyrimidine]
O=C(C1CC1)N1CCc2c(ncnc2N2CCN(C3CCC3)CC2)C1 [Compound 52, 4-(4-cyclobutylpiperazin-1-yl)-7-(cyclopropylcarbonyl)-5,6,7,8-tetrahydropyrido[3,4-d]pyrimidine]
CCN(CCN(C)C)c1ncnc2c1CCN(Cc1ccccc1)C2 [Compound 14, N-(7-benzyl-5,6,7,8-tetrahydropyrido[3,4-d]pyrimidin-4-yl)-N-ethyl-N′,N′-dimethylethane-1,2-diamine]
Fc1ccc(CN2CCc3c(ncnc3N3CCN(C4CCC4)CC3)C2)cc1 [Compound 68, 4-(4-cyclobutylpiperazin-1-yl)-7-(4-fluorobenzyl)-5,6,7,8-tetrahydropyrido[3,4-d]pyrimidine]

Same assay, conditions: test compound 4 μM, 1 μM histamine; read-out: percent inhibition of agonist-induced GTP-gammaS binding to H3

Inhibition at 4 µM, ≥ 90%:
CC(=O)c1ccc(N2CCc3c(ncnc3N3CCN(C4CCC4)CC3)C2)cc1 [Compound 3, 1-{4-[4-(4-Cyclobutylpiperazin-1-yl)-5,8-dihydropyrido[3.4-d]pyrimidin-7(6H)-yl]phenyl}Ethanone]
